Measured values taken from ChEMBL document CHEMBL3588762, “A practical glycosyltransferase assay for the identification of new inhibitor chemotypes” (Medchemcomm, 2014).
Calls of active or inactive are those of the source. The calls are words filed in the database; no cut-off is given here.

Tests used:
[1] = target: Intestinal-type alkaline phosphatase (Bos taurus) (UniProt P19111); experiment: Activity of calf intestinal phosphatase assessed as compound turn over rates by inorganic phosphate release and malachite green dye based inorganic phosphate detection based assay
[2] = target: T1, Alpha 1,4 galactosyltransferase (Neisseria meningitidis) (UniProt Q8KHJ3); experiment: Inhibition of Neisseria meningitidis alpha-1,4-galactosyltransferase LgtC at 20% donor UDP-Gal turn over rates by inorganic phosphate release from UDP and malachite green dye based inorganic phosphate detection based assay
T1 sequence (whole entry): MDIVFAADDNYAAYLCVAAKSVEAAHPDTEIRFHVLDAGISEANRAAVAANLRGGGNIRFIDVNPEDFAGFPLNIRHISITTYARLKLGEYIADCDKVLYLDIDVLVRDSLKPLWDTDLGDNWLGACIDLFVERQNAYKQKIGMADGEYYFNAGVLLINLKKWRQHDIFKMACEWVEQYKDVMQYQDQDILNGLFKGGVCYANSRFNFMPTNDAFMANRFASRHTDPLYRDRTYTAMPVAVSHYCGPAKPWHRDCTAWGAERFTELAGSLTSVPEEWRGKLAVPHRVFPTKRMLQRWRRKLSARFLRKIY

[3] = target: T1, Alpha 1,4 galactosyltransferase (Neisseria meningitidis); experiment: Inhibition of Neisseria meningitidis alpha-1,4-galactosyltransferase LgtC at 50% donor UDP-Gal turn over rates by inorganic phosphate release from UDP and malachite green dye based inorganic phosphate detection based assay
[4] = target: T1, Alpha 1,4 galactosyltransferase (Neisseria meningitidis); experiment: Inhibition of Neisseria meningitidis alpha-1,4-galactosyltransferase LgtC at 90% donor UDP-Gal turn over rates by inorganic phosphate release from UDP and malachite green dye based inorganic phosphate detection based assay
[5] = target: T2, Beta-1,4-galactosyltransferase 1 (Bos taurus) (UniProt P08037); experiment: Inhibition of bovine beta-1,4-GalT […] at 10% to 50 donor UDP-Gal turn over rates by inorganic phosphate release from UDP and malachite green dye based inorganic phosphate detection based assay
T2 sequence (whole entry): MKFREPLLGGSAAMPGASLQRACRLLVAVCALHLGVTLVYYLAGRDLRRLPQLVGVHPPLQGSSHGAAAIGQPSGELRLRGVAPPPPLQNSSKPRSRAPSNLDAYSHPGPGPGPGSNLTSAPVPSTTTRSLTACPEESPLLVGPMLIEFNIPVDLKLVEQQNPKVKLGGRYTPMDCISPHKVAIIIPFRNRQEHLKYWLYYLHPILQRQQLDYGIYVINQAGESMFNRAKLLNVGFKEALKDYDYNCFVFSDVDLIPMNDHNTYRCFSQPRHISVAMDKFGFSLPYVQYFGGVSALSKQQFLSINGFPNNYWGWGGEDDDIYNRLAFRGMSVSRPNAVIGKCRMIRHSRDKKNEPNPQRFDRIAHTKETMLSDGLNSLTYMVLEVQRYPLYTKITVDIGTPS

[6] = target: T3, Alpha 1,4 galactosyltransferase (Neisseria meningitidis, UniProt Q8KHJ3); experiment: Inhibition of Neisseria meningitidis alpha-1,4-galactosyltransferase LgtC by inorganic phosphate release from UDP and malachite green dye based inorganic phosphate detection based assay
T3 sequence (Q8KHJ3 whole entry): T1 sequence (whole entry)

[7] = target: T1, Alpha 1,4 galactosyltransferase (Neisseria meningitidis); experiment: Activity of Neisseria meningitidis alpha-1,4-galactosyltransferase LgtC assessed as compound turn over rates at 50 to 100 uM incubated for 20 mins by inorganic phosphate release and malachite green dye based inorganic phosphate detection based assay
[8] = target: T4, Beta-1,4-galactosyltransferase 1 (Bos taurus, UniProt P08037); experiment: Inhibition of bovine beta-1,4-GalT […] at 29% donor UDP-Gal turn over rates by inorganic phosphate release from UDP and malachite green dye based inorganic phosphate detection based assay
T4 sequence (P08037 whole entry): T2 sequence (whole entry)

Chain of Intestinal-type alkaline phosphatase (Bos taurus) (P19111 20-506 limits assumed): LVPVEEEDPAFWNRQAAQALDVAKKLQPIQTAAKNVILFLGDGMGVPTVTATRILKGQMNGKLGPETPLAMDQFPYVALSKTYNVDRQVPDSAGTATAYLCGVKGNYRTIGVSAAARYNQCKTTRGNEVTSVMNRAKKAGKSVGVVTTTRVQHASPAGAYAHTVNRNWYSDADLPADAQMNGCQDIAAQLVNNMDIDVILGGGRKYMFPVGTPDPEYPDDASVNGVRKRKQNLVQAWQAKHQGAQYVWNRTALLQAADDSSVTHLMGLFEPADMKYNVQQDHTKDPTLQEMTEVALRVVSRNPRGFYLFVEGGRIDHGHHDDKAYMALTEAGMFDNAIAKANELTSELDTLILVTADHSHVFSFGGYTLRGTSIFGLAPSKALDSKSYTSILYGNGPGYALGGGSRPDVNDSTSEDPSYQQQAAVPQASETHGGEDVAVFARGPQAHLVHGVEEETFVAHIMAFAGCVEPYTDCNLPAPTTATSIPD

| Activity [1] | inhibition [2] | inhibition [3] | inhibition [4] | inhibition [5] | IC50 [6] [µM] | Activity [7] | IC50 [8] [µM] | Structure (SMILES) |
| --- | --- | --- | --- | --- | --- | --- | --- | --- |
| Active | – | – | – | – | – | – | – | O=c1ccn([C@@H]2O[C@H](COP(=O)(O)OP(=O)(O)O)[C@@H](O)[C@H]2O)c(=O)[nH]1 |
| – | inactive | inactive | inactive | inactive | – | – | – | O=c1ccn([C@@H]2O[C@H](CO)[C@@H](O)[C@H]2O)c(=O)[nH]1 |
| Active | – | – | – | – | 0.9 | inactive | 9 | O=Cc1ccc(-c2cn([C@@H]3O[C@H](COP(=O)(O)OP(=O)(O)O[C@H]4O[C@H](CO)[C@H](O)[C@H](O)[C@H]4O)[C@@H](O)[C@H]3O)c(=O)[nH]c2=O)s1 |
